What was measured:
[1] = biological target: DOR (Homo sapiens, UniProt P41143); format: binding
[2] = biological target: MOR (Mus musculus, UniProt P42866); assay: MOR [35S]GTPγS functional assay, MOR-CHO membranes; format: biochemical; conditions: for Emax: read-out: MOR [35S]GTPγS Emax, relative to maximal stimulation produced by DAMGO; for MOR [35S]GTPγS Emax: relative to maximal stimulation produced by DAMGO
[3] = test system: MOR; format: binding; conditions: for Selectivity D/M: ratio Ki DOR / Ki MOR; for Selectivity K/M: ratio Ki KOR / Ki MOR
[4] = biological target: KOR (Homo sapiens, UniProt P41145); format: binding
[5] = test system: Swiss Webster mice; assay: Warm-water tail immersion assay, antagonism of morphine antinociception; conditions: single dose 10 mg kg^−1 s.c. in the presence of morphine 10 mg kg^−1 s.c.
[6] = test system: Swiss Webster mice; assay: Warm-water tail immersion assay, agonism; conditions: single dose 10 mg kg^−1 s.c., 20 min after injection

| SMILES | Ki [1] | EC50 [2] | Emax [2] | Selectivity D/M [3] | Selectivity K/M [3] | Ki [4] | ability to reverse the antinociceptive effects of morphine [5] | %MPE (antinociception) [6] | MOR [35S]GTPγS Emax [2] |
| --- | --- | --- | --- | --- | --- | --- | --- | --- | --- |
| O=C(N[C@@H]1CC[C@@]2(O)[C@H]3Cc4ccc(O)c5c4[C@@]2(CCN3CC2CC2)[C@H]1O5)c1cccc2c(-c3ccncc3)coc12 [Compound 12, N-((4R,4aS,7R,7aR,12bS)-3-(Cyclopropylmethyl)-4a,9-dihydroxy-2,3,4,4a,5,6,7,7a-octahydro-1H-4,12-methanobenzofuro[3,2-e]isoquinolin-7-yl)-3-(pyridin-4-yl)benzofuran-7-carboxamide] | 45 ± 9.3 nM | 1.2 ± 0.38 nM | ~10% | 213 | 35 | 7.34 ± 0.95 nM | considerable antagonism activity | – | – |
| O=C(N[C@@H]1CC[C@@]2(O)[C@H]3Cc4ccc(O)c5c4[C@@]2(CCN3CC2CC2)[C@H]1O5)c1cccc2c(-c3ccccc3)coc12 [Compound 11, N-((4R,4aS,7R,7aR,12bS)-3-(Cyclopropylmethyl)-4a,9-dihydroxy-2,3,4,4a,5,6,7,7a-octahydro-1H-4,12-methanobenzofuro[3,2-e]isoquinolin-7-yl)-3-phenylbenzofuran-7-carboxamide] | 22.1 ± 3.2 nM | 0.56 ± 0.07 nM | ~10% | 123 | 110 | 19.7 ± 2.2 nM | considerable antagonism activity | – | – |
| Cl.O=C(N[C@@H]1CC[C@@]2(O)[C@H]3Cc4ccc(O)c5c4[C@@]2(CCN3CC2CC2)[C@H]1O5)c1cccc2c(Br)coc12 [Compound 8, 3-Bromo-N-((4R,4aS,7R,7aR,12bS)-3-(cyclopropylmethyl)-4a,9-dihydroxy-2,3,4,4a,5,6,7,7a-octahydro-1H-4,12-methanobenzofuro[3,2-e]isoquinolin-7-yl)benzofuran-7-carboxamide hydrochloride] | 5.34 ± 0.99 nM | 0.49 ± 0.08 nM | – | 27 | 1.0 | 0.21 ± 0.01 nM | – | 90.9% | 42.9 ± 3.9% |
| Cc1coc2c(C(=O)N[C@@H]3CC[C@@]4(O)[C@H]5Cc6ccc(O)c7c6[C@@]4(CCN5CC4CC4)[C@H]3O7)cccc12 [Compound 10, N-((4R,4aS,7R,7aR,12bS)-3-(Cyclopropylmethyl)-4a,9-dihydroxy-2,3,4,4a,5,6,7,7a-octahydro-1H-4,12-methanobenzofuro[3,2-e]isoquinolin-7-yl)-3-methylbenzofuran-7-carboxamide] | 13.1 ± 1.1 nM | 0.81 ± 0.14 nM | 32.7 ± 3.3% | 57 | 1.9 | 0.44 ± 0.08 nM | – | 54.2% | – |
| Cc1coc2c(C(=O)N[C@H]3CC[C@@]4(O)[C@H]5Cc6ccc(O)c7c6[C@@]4(CCN5CC4CC4)[C@H]3O7)cccc12 [Compound 4, N-((4R,4aS,7S,7aR,12bS)-3-(Cyclopropylmethyl)-4a,9-dihydroxy-2,3,4,4a,5,6,7,7a-octahydro-1H-4,12-methanobenzofuro[3,2-e]isoquinolin-7-yl)-3-methylbenzofuran-7-carboxamide] | 87 ± 5.3 nM | 4.52 ± 0.39 nM | 23.5 ± 1.6% | 130 | 23 | 15.7 ± 1.3 nM | – | – | – |
| O=C(N[C@H]1CC[C@@]2(O)[C@H]3Cc4ccc(O)c5c4[C@@]2(CCN3CC2CC2)[C@H]1O5)c1cccc2c(Cl)coc12 [Compound 3, 3-Chloro-N-((4R,4aS,7S,7aR,12bS)-3-(cyclopropylmethyl)-4a,9-dihydroxy-2,3,4,4a,5,6,7,7a-octahydro-1H-4,12-methanobenzofuro[3,2-e]isoquinolin-7-yl)benzofuran-7-carboxamide] | 138 ± 24 nM | 2.65 ± 0.47 nM | 21.6 ± 0.8% | 277 | 34 | 17.1 ± 1.3 nM | – | – | – |
| O=C(N[C@@H]1CC[C@@]2(O)[C@H]3Cc4ccc(O)c5c4[C@@]2(CCN3CC2CC2)[C@H]1O5)c1cccc2c(Cl)coc12 [Compound 9, 3-Chloro-N-((4R,4aS,7R,7aR,12bS)-3-(cyclopropylmethyl)-4a,9-dihydroxy-2,3,4,4a,5,6,7,7a-octahydro-1H-4,12-methanobenzofuro[3,2-e]isoquinolin-7-yl)benzofuran-7-carboxamide] | 5.17 ± 1.13 nM | 0.35 ± 0.07 nM | 51.2 ± 3.4% | 37 | 1.1 | 0.16 ± 0.02 nM | – | 84.5% | – |
| O=C(N[C@H]1CC[C@@]2(O)[C@H]3Cc4ccc(O)c5c4[C@@]2(CCN3CC2CC2)[C@H]1O5)c1cccc2c(-c3ccccc3)coc12 [Compound 5, N-((4R,4aS,7S,7aR,12bS)-3-(Cyclopropylmethyl)-4a,9-dihydroxy-2,3,4,4a,5,6,7,7a-octahydro-1H-4,12-methanobenzofuro[3,2-e]isoquinolin-7-yl)-3-phenylbenzofuran-7-carboxamide] | 238 ± 28 nM | 27.4 ± 5 nM | 17.3 ± 1% | 173 | 24 | 33.8 ± 5.6 nM | – | – | – |
| O=C(N[C@H]1CC[C@@]2(O)[C@H]3Cc4ccc(O)c5c4[C@@]2(CCN3CC2CC2)[C@H]1O5)c1cccc2c(-c3ccncc3)coc12 [Compound 6, N-((4R,4aS,7S,7aR,12bS)-3-(Cyclopropylmethyl)-4a,9-dihydroxy-2,3,4,4a,5,6,7,7a-octahydro-1H-4,12-methanobenzofuro[3,2-e]isoquinolin-7-yl)-3-(pyridin-4-yl)benzofuran-7-carboxamide] | 97.7 ± 16.3 nM | 12 ± 2.1 nM | 14.8 ± 1.6% | 41 | 3.7 | 8.7 ± 1.5 nM | – | – | – |
| Cl.O=C(N[C@H]1CC[C@@]2(O)[C@H]3Cc4ccc(O)c5c4[C@@]2(CCN3CC2CC2)[C@H]1O5)c1cccc2c(Br)coc12 [Compound 2, 3-Bromo-N-((4R,4aS,7S,7aR,12bS)-3-(cyclopropylmethyl)-4a,9-dihydroxy-2,3,4,4a,5,6,7,7a-octahydro-1H-4,12-methanobenzofuro[3,2-e]isoquinolin-7-yl)benzofuran-7-carboxamide hydrochloride] | 87.8 ± 5.5 nM | 7.37 ± 2.32 nM | – | 154 | 30 | 17.3 ± 1.2 nM | – | – | 16.0 ± 4.0% |
